{
  "source": "patent US9387204B2",
  "about": "“Fused bicyclic imidazoles” (BAYER INTELLECTUAL PROPERTY GmbH, priority 2007, dated 2016)",
  "data": [
    {"system": "A549 cells", "assay": "Cellular proliferation/cytotoxicity assay (Alamar Blue), A549 cells", "conditions": "Homo sapiens, A549, 72 h, read-out: Anti-proliferative/Cytotoxic activity (A549 cells)", "units": {"IC50": "µM"}, "values": [
      {"smiles": "c1ccc(-c2c(-c3ccc(CN4CCC(c5nc(-c6cnccn6)no5)CC4)cc3)nc3ncccn23)cc1", "note": "[Example 4, 3-phenyl-2-(4-{[4-(3-pyrazin-2-yl-1,2,4-oxadiazol-5-yl)piperidin-1-yl]methyl}phenyl)imidazo[1,2-a]pyrimidine]", "IC50": "> 10"},
      {"smiles": "Cc1cccc(-c2nnc(C3CCN(Cc4ccc(-c5nc6ccccn6c5-c5ccccc5)cc4)CC3)[nH]2)n1", "note": "[Example 64, 2-[4-({4-[5-(6-methylpyridin-2-yl)-4H-1,2,4-triazol-3-yl]piperidin-1-yl}methyl)phenyl]-3-phenylimidazo[1,2-a]pyridine]", "IC50": "< 10"},
      {"smiles": "c1ccc(-c2nc(C3CCN(Cc4ccc(-c5nc6ncccn6c5-c5ccncc5)cc4)CC3)n[nH]2)nc1", "note": "[Example 36, 3-pyridin-4-yl-2-(4-{[4-(5-pyridin-2-yl-1,2,4-triazol-3-yl)piperidin-1-yl]methyl}phenyl)imidazo[1,2-a]pyrimidine]", "IC50": "> 10"},
      {"smiles": "c1ccc(-c2nc(C3CCN(Cc4ccc(-c5nc6ccccn6c5-c5ccncc5)cc4)CC3)n[nH]2)nc1", "note": "[Example 16, 3-pyridin-4-yl-2-(4-{[4-(5-pyridin-2-yl-1,2,4-triazol-3-yl)piperidin-1-yl]methyl}phenyl)imidazo[1,2-a]pyridine]", "IC50": "> 10"},
      {"smiles": "Cc1cccc(-c2nnc(C3CCN(Cc4ccc(-c5nc6ccc(C)nn6c5-c5ccccc5)cc4)CC3)[nH]2)n1", "note": "[Example 69, 6-methyl-2-[4-({4-[5-(6-methylpyridin-2-yl)-4H-1,2,4-triazol-3-yl]piperidin-1-yl}methyl)phenyl]-3-phenylimidazo[1,2-b]pyridazine]", "IC50": "< 10"},
      {"smiles": "CSc1nn2c(-c3ccccc3)c(-c3ccc(CN4CCC(c5nnc(-c6ccccn6)[nH]5)CC4)cc3)nc2s1", "note": "[Example 47, 2-(methylsulfanyl)-5-phenyl-6-[4-({4-[5-(pyridin-2-yl)-4H-1,2,4-triazol-3-yl]piperidin-1-yl}methyl)phenyl]imidazo[2,1-b][1,3,4]thiadiazole]", "IC50": "> 10"},
      {"smiles": "c1ccc(-c2nnc(C3CCN(Cc4ccc(-c5nc6scnn6c5-c5ccccc5)cc4)CC3)[nH]2)cc1", "note": "[Example 123, 5-phenyl-6-(4-{[4-(5-phenyl-4H-1,2,4-triazol-3-yl)piperidin-1-yl]methyl}phenyl)imidazo[2,1-b][1,3,4]thiadiazole]", "IC50": "< 10"},
      {"smiles": "Brc1cnc2nc(-c3ccc(CN4CCC(c5n[nH]c(-c6ccccn6)n5)CC4)cc3)c(-c3ccccc3)n2c1", "note": "[Example 12, 6-bromo-3-phenyl-2-(4-{[4-(5-pyridin-2-yl-1,2,4-triazol-3-yl)piperidin-1-yl]methyl}phenyl)imidazo[1,2-a]pyrimidine]", "IC50": "< 10"},
      {"smiles": "c1ccc(-c2nc(C3CCN(Cc4ccc(-c5nc6ncccn6c5-c5cccs5)cc4)CC3)n[nH]2)nc1", "note": "[Example 35, 2-(4-{[4-(5-pyridin-2-yl-1,2,4-triazol-3-yl)piperidin-1-yl]methyl}phenyl)-3-(2-thienyl)imidazo[1,2-a]pyrimidine]", "IC50": "> 10"},
      {"smiles": "Cc1ccc2nc(-c3ccc(CN4CCC(c5nnc(-c6ccccc6)[nH]5)CC4)cc3)c(-c3ccccc3)n2n1", "note": "[Example 119, 6-methyl-3-phenyl-2-(4-{[4-(5-phenyl-4H-1,2,4-triazol-3-yl)piperidin-1-yl]methyl}phenyl)imidazo[1,2-b]pyridazine]", "IC50": "< 10"},
      {"smiles": "Fc1ccc2nc(-c3ccc(CN4CCC(c5n[nH]c(-c6ccccn6)n5)CC4)cc3)c(-c3ccccc3)n2c1", "note": "[Example 22, 6-fluoro-3-phenyl-2-(4-{[4-(5-pyridin-2-yl-1,2,4-triazol-3-yl)piperidin-1-yl]methyl}phenyl)imidazo[1,2-a]pyridine]", "IC50": "> 10"},
      {"smiles": "Clc1ccn2c(-c3ccccc3)c(-c3ccc(CN4CCC(c5nnc(-c6ccccc6)[nH]5)CC4)cc3)nc2c1", "note": "[Example 120, 7-chloro-3-phenyl-2-(4-{[4-(5-phenyl-4H-1,2,4-triazol-3-yl)piperidin-1-yl]methyl}phenyl)imidazo[1,2-a]pyridine]", "IC50": "< 10"},
      {"smiles": "COc1ccn2c(-c3ccccc3)c(-c3ccc(CN4CCC(c5n[nH]c(-c6ccccn6)n5)CC4)cc3)nc2n1", "note": "[Example 24, 7-methoxy-3-phenyl-2-(4-{[4-(5-pyridin-2-yl-1,2,4-triazol-3-yl)piperidin-1-yl]methyl}phenyl)imidazo[1,2-a]pyrimidine]", "IC50": "< 10"},
      {"smiles": "c1ccc(-c2c(-c3ccc(CN4CCC(c5n[nH]c(-c6ccccn6)n5)CC4)cc3)nc3sccn23)cc1", "note": "[Example 10, 5-phenyl-6-(4-{[4-(5-pyridin-2-yl-1,2,4-triazol-3-yl)piperidin-1-yl]methyl}phenyl)imidazo[2,1-b][1,3]thiazole]", "IC50": "< 10"},
      {"smiles": "Fc1ccc(-c2c(-c3ccc(CN4CCC(c5n[nH]c(-c6ccccn6)n5)CC4)cc3)nc3ncccn23)cc1", "note": "[Example 18, 3-(4-fluorophenyl)-2-(4-{[4-(5-pyridin-2-yl-1,2,4-triazol-3-yl)piperidin-1-yl]methyl}phenyl)imidazo[1,2-a]pyrimidine]", "IC50": "> 10"},
      {"smiles": "Cc1nn2c(-c3ccccc3)c(-c3ccc(CN4CCC(c5nnc(-c6ccccn6)[nH]5)CC4)cc3)nc2s1", "note": "[Example 45, 2-methyl-5-phenyl-6-[4-({4-[5-(pyridin-2-yl)-4H-1,2,4-triazol-3-yl]piperidin-1-yl}methyl)phenyl]imidazo[2,1-b][1,3,4]thiadiazole]", "IC50": "> 10"},
      {"smiles": "Cc1cccn2c(-c3ccccc3)c(-c3ccc(CN4CCC(c5n[nH]c(-c6ccccn6)n5)CC4)cc3)nc12", "note": "[Example 8, 8-methyl-3-phenyl-2-(4-{[4-(5-pyridin-2-yl-1,2,4-triazol-3-yl)piperidin-1-yl]methyl}phenyl)imidazo[1,2-a]pyridine]", "IC50": "< 10"},
      {"smiles": "NC(=O)c1ccn2c(-c3ccccc3)c(-c3ccc(CN4CCC(c5n[nH]c(-c6ccccn6)n5)CC4)cc3)nc2c1", "note": "[Example 38, 3-phenyl-2-(4-{[4-(5-pyridin-2-yl-1,2,4-triazol-3-yl)piperidin-1-yl]methyl}phenyl)imidazo[1,2-a]pyridine-7-carboxamide]", "IC50": "> 10"},
      {"smiles": "Fc1cccc(-c2c(-c3ccc(CN4CCC(c5n[nH]c(-c6ccccn6)n5)CC4)cc3)nc3ccccn23)c1", "note": "[Example 14, 3-(3-fluorophenyl)-2-(4-{[4-(5-pyridin-2-yl-1,2,4-triazol-3-yl)piperidin-1-yl]methyl}phenyl)imidazo[1,2-a]pyridine]", "IC50": "< 10"}
    ]},
    {"system": "A549 cells", "assay": "Cellular proliferation/cytotoxicity assay (Alamar Blue), A549 cells", "conditions": "read-out: Anti-proliferative/Cytotoxic activity (A549 cells); A549 cells, 72 h, Alamar Blue (Resazurin)", "units": {"IC50": "µM"}, "values": [
      {"smiles": "c1ccc(-c2c(-c3ccc(CN4CCC(c5nnc(-c6ccco6)[nH]5)CC4)cc3)nc3ncccn23)cc1", "note": "[Example 95, ′2-[4-({4-[5-(2-furyl)-4H-1,2,4-triazol-3-yl]piperidin-1-yl}methyl)phenyl]-3-phenylimidazo[1,2-a]pyrimidine]", "IC50": "> 10"},
      {"smiles": "N#Cc1cccn2c(-c3ccccc3)c(-c3ccc(CN4CCC(c5nnc(-c6nccs6)[nH]5)CC4)cc3)nc12", "note": "[Example 86, ′3-phenyl-2-[4-({4-[5-(1,3-thiazol-2-yl)-4H-1,2,4-triazol-3-yl]piperidin-1-yl}methyl)phenyl]imidazo[1,2-a]pyridine-8-carbonitrile]", "IC50": "> 10"},
      {"smiles": "c1ccc(-c2c(-c3ccc(CN4CCC(c5nnc(-c6ncccn6)[nH]5)CC4)cc3)nc3ccccn23)cc1", "note": "[Example 80, ′3-phenyl-2-(4-{[4-(5-pyrimidin-2-yl-4H-1,2,4-triazol-3-yl)piperidin-1-yl]methyl}phenyl)imidazo[1,2-a]pyridine]", "IC50": "> 10"},
      {"smiles": "c1ccc(-c2c(-c3ccc(CN4CCC(c5cc(-c6ccccn6)n[nH]5)CC4)cc3)nc3ccccn23)cc1", "note": "[Example 111, ′3-phenyl-2-(4-{[4-(3-pyridin-2-yl-1H-pyrazol-5-yl)piperidin-1-yl]methyl}phenyl)imidazo[1,2-a]pyridine]", "IC50": "< 10"},
      {"smiles": "c1ccc(-c2c(-c3ccc(CN4CCC(c5n[nH]c(-c6ncccn6)n5)CC4)cc3)nc3ncccn23)cc1", "note": "[Example 79, ′3-phenyl-2-(4-{[4-(5-pyrimidin-2-yl-1H-1,2,4-triazol-3-yl)piperidin-1-yl]methyl}phenyl)imidazo[1,2-a]pyrimidine]", "IC50": "> 10"},
      {"smiles": "N#Cc1ccn2c(-c3ccccc3)c(-c3ccc(CN4CCC(c5nnc(-c6cccs6)[nH]5)CC4)cc3)nc2c1", "note": "[Example 102, ′3-phenyl-2-[4-({4-[5-(2-thienyl)-4H-1,2,4-triazol-3-yl]piperidin-1-yl}methyl)phenyl]imidazo[1,2-a]pyridine-7-carbonitrile]", "IC50": "< 10"},
      {"smiles": "c1ccc(-c2c(-c3ccc(CN4CCC(c5nnc(-c6ccc[nH]6)[nH]5)CC4)cc3)nc3scnn23)cc1", "note": "[Example 108, ′5-phenyl-6-[4-({4-[5-(1H-pyrrol-2-yl)-4H-1,2,4-triazol-3-yl]piperidin-1-yl}methyl)phenyl]imidazo[2,1-b][1,3,4]thiadiazole]", "IC50": "< 10"},
      {"smiles": "Cc1ccc(-c2nnc(C3CCN(Cc4ccc(-c5nc6cc(C#N)ccn6c5-c5ccccc5)cc4)CC3)[nH]2)nc1", "note": "[Example 72, ′2-[4-({4-[5-(5-methylpyridin-2-yl)-4H-1,2,4-triazol-3-yl]piperidin-1-yl}methyl)phenyl]-3-phenylimidazo[1,2-a]pyridine-7-carbonitrile]", "IC50": "< 10"},
      {"smiles": "N#Cc1cc2nc(-c3ccc(CN4CCC(c5nnc(-c6ccccn6)[nH]5)CC4)cc3)c(-c3ccccc3)n2cc1Br", "note": "[Example 52, ′6-bromo-3-phenyl-2-(4-{[4-(5-pyridin-2-yl-4H-1,2,4-triazol-3-yl)piperidin-1-yl]methyl}phenyl)imidazo[1,2-a]pyridine-7-carbonitrile]", "IC50": "> 10"},
      {"smiles": "c1ccc(-c2c(-c3ccc(CN4CCC(c5n[nH]c(-c6nccs6)n5)CC4)cc3)nc3scnn23)cc1", "note": "[Example 88, ′5-phenyl-6-[4-({4-[5-(1,3-thiazol-2-yl)-1H-1,2,4-triazol-3-yl]piperidin-1-yl}methyl)phenyl]imidazo[2,1-b][1,3,4]thiadiazole]", "IC50": "< 10"},
      {"smiles": "Cc1ccc2nc(-c3ccc(CN4CCC(c5nnc(-c6ccccn6)[nH]5)CC4)cc3)c(-c3ccccc3)n2n1", "note": "[Example 53, ′6-methyl-3-phenyl-2-(4-{[4-(5-pyridin-2-yl-4H-1,2,4-triazol-3-yl)piperidin-1-yl]methyl}phenyl)imidazo[1,2-b]pyridazine]", "IC50": "< 10"}
    ]}
  ]
}
